Data as given in ChEMBL document CHEMBL5465560, “Selectivity Literature for EUbOPEN Chemogenomic Library” (2024).

Legend:
[1] = biological target: Tyrosine-protein kinase FRK (Homo sapiens) (UniProt P42685); conditions: at 10 µM
[2] = biological target: MAP kinase-interacting serine/threonine-protein kinase 1 (Homo sapiens) (UniProt Q9BUB5); assay: Selectivity interaction (KinomeScan (DiscoverX)) EUB0000595a MKNK1; conditions: at 10 µM
[3] = biological target: Insulin-like growth factor 1 receptor (Homo sapiens, UniProt P08069); assay: Selectivity interaction (KinomeScan (DiscoverX)) EUB0000595a IGF1R; conditions: at 10 µM
[4] = biological target: Transcription initiation factor TFIID subunit 1-like (Homo sapiens) (UniProt Q8IZX4); assay: Selectivity interaction (Bromodomain panel (DSF asssay)) EUB0000270b TAF1L
[5] = biological target: T1, Serine/threonine-protein kinase D2 (Homo sapiens) (UniProt Q9BZL6); assay: Selectivity interaction (Upstate Kinase Profiler service (Millipore)) EUB0000056c PRKD2; conditions: at 1 µM
T1 sequence (whole entry): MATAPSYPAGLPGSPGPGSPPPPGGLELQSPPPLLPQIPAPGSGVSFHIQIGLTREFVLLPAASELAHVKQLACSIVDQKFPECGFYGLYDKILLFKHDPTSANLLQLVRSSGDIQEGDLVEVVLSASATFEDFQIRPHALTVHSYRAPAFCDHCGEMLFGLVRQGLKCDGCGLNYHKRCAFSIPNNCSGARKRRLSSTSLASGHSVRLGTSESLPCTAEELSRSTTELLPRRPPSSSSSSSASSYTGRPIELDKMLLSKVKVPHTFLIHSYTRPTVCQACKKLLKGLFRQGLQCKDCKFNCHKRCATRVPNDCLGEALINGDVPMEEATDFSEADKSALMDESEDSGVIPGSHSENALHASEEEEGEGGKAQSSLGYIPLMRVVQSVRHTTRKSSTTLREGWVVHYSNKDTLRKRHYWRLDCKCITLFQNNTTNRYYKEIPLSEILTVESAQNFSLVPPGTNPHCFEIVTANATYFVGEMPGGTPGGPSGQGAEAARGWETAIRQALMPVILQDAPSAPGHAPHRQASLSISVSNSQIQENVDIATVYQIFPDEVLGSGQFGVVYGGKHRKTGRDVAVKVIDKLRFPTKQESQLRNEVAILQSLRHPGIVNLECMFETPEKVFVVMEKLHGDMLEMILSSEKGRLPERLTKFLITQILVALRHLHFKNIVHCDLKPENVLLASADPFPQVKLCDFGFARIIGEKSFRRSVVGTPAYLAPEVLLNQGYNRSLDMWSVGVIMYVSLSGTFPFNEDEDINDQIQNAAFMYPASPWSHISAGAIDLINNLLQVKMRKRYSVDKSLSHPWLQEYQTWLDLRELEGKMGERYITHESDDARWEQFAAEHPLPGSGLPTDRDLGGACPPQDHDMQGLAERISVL

[6] = biological target: Myosin light chain kinase 2, skeletal/cardiac muscle (Homo sapiens) (UniProt Q9H1R3); assay: Selectivity interaction (ProQinase) EUB0000171b MYLK2
[7] = biological target: Tyrosine-protein kinase CSK (Homo sapiens) (UniProt P41240); assay: Selectivity interaction (ProQinase) EUB0000171b CSK
[8] = biological target: BMP-2-inducible protein kinase (Homo sapiens) (UniProt Q9NSY1); assay: Selectivity interaction (KinomeScan (DiscoverX)) EUB0001619a BMP2K; conditions: at 1 µM
[9] = biological target: T2, Serine/threonine-protein kinase Chk1 (Homo sapiens) (UniProt O14757); assay: Selectivity interaction (KinomeScan (DiscoverX)) EUB0001619a CHEK1; conditions: at 1 µM
T2 sequence (whole entry): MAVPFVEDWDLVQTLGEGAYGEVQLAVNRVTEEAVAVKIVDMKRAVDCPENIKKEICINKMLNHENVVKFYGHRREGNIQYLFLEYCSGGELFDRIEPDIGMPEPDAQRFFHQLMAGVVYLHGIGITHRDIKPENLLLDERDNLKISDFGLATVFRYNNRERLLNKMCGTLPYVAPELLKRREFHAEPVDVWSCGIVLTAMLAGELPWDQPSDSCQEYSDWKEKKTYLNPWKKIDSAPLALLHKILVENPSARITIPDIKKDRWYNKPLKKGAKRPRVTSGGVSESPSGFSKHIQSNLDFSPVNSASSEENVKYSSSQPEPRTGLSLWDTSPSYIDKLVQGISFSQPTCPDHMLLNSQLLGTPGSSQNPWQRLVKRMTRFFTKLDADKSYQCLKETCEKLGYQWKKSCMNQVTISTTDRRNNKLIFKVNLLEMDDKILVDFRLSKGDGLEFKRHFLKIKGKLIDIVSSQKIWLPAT

[10] = biological target: T3, Peripheral plasma membrane protein CASK (Homo sapiens) (UniProt O14936); assay: Selectivity interaction (KinomeScan (DiscoverX)) EUB0000607a CASK; conditions: at 10 µM
T3 sequence (whole entry): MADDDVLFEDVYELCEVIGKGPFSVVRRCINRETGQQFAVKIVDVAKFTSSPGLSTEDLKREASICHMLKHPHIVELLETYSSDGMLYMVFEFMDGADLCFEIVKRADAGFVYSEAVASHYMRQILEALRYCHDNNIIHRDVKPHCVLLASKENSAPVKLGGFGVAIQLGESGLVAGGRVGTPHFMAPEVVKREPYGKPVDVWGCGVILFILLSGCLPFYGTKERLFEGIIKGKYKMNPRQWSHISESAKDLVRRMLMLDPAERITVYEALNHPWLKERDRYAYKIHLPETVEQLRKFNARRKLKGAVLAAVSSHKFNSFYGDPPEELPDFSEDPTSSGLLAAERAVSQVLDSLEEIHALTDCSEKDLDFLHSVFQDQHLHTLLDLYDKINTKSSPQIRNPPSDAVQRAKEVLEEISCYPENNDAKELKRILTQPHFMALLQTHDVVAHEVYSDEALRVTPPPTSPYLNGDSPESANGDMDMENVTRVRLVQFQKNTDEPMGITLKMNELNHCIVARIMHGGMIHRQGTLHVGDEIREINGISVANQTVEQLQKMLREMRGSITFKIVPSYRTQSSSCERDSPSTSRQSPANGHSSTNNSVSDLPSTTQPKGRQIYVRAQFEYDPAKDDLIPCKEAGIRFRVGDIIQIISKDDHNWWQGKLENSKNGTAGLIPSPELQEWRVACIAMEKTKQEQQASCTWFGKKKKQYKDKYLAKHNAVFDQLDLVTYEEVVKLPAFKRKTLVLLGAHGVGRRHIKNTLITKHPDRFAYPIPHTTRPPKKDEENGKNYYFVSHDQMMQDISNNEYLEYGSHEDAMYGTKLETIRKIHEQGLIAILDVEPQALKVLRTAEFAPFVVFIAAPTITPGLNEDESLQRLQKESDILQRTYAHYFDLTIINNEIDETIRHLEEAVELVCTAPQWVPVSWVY

Chain of Tyrosine-protein kinase CSK (Homo sapiens) (P41240 2-450 limits assumed): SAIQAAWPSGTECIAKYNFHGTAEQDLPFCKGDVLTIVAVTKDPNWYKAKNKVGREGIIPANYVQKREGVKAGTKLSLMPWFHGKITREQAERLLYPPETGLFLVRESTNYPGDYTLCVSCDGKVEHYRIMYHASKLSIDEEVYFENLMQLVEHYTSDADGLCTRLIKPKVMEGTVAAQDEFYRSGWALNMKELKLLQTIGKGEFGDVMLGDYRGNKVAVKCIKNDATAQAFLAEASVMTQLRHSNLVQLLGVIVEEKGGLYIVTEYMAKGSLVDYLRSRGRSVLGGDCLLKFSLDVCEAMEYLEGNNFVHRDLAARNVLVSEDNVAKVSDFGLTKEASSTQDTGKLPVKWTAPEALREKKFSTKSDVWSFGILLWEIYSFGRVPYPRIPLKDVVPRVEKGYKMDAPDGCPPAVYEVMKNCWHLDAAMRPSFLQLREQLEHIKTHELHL
Chain of Myosin light chain kinase 2, skeletal/cardiac muscle (Homo sapiens) (Q9H1R3 whole entry): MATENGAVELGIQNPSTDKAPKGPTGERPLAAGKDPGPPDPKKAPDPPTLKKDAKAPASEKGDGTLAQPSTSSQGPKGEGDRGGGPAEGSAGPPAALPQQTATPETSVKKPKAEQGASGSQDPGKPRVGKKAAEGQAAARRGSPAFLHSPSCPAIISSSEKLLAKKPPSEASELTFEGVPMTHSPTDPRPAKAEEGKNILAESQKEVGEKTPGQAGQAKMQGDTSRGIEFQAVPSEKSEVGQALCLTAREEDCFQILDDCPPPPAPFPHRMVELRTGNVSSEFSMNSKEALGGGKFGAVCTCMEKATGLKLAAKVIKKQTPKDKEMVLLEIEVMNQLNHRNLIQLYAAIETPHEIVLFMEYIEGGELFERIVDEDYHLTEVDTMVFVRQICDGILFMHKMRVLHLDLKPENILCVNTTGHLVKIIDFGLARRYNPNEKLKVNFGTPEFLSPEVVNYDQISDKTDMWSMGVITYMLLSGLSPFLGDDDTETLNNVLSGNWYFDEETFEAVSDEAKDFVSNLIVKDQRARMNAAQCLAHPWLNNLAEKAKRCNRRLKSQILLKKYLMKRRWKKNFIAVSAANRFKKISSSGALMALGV
Chain of Tyrosine-protein kinase FRK (Homo sapiens) (P42685 whole entry): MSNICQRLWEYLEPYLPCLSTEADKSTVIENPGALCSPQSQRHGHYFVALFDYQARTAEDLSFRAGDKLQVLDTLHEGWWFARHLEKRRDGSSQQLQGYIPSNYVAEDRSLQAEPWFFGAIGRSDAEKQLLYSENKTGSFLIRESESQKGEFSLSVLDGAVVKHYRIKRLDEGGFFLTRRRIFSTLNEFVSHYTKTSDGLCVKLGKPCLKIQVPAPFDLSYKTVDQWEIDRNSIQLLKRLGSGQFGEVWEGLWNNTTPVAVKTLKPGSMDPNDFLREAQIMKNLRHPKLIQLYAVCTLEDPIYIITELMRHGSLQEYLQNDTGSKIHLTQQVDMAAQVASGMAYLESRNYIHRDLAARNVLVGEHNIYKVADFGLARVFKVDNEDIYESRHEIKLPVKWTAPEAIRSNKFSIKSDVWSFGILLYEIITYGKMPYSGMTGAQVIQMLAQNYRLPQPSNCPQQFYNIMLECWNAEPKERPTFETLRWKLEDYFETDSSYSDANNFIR
Chain of Insulin-like growth factor 1 receptor (P08069 31-736 limits assumed): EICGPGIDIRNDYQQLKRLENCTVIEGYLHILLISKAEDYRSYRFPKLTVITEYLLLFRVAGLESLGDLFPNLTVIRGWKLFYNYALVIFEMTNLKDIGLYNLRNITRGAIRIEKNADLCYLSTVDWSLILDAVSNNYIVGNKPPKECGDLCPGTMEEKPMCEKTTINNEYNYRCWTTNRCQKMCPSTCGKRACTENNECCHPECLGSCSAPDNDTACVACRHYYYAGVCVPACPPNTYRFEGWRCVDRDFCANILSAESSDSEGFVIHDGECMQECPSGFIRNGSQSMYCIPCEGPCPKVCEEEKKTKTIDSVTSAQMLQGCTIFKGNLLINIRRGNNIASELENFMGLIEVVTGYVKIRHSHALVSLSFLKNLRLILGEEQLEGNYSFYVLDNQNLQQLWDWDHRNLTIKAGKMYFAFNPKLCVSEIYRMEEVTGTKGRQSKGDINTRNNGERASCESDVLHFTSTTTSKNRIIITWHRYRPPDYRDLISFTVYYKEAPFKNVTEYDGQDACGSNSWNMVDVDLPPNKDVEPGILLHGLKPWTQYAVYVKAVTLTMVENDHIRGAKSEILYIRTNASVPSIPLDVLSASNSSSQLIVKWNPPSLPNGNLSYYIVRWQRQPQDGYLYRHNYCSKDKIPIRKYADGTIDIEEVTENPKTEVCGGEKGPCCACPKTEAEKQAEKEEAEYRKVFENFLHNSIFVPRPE
Chain of Insulin-like growth factor 1 receptor (P08069 741-1367 limits assumed): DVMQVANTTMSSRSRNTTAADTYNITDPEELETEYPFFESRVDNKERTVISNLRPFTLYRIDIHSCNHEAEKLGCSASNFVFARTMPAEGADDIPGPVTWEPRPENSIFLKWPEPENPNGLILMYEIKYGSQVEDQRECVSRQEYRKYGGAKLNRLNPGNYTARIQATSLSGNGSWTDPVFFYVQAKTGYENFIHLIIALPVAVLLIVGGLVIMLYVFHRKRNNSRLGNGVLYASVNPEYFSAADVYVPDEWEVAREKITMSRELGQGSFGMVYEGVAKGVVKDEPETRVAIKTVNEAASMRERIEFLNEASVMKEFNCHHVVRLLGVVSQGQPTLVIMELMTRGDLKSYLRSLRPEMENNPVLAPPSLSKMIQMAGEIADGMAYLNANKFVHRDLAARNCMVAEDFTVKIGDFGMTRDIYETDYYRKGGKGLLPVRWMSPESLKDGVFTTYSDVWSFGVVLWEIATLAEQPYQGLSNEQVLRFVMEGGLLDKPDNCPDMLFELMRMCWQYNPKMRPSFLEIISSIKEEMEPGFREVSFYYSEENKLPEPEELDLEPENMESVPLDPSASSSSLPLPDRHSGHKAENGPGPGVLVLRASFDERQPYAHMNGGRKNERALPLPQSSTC
Chain of Transcription initiation factor TFIID subunit 1-like (Homo sapiens) (Q8IZX4 whole entry): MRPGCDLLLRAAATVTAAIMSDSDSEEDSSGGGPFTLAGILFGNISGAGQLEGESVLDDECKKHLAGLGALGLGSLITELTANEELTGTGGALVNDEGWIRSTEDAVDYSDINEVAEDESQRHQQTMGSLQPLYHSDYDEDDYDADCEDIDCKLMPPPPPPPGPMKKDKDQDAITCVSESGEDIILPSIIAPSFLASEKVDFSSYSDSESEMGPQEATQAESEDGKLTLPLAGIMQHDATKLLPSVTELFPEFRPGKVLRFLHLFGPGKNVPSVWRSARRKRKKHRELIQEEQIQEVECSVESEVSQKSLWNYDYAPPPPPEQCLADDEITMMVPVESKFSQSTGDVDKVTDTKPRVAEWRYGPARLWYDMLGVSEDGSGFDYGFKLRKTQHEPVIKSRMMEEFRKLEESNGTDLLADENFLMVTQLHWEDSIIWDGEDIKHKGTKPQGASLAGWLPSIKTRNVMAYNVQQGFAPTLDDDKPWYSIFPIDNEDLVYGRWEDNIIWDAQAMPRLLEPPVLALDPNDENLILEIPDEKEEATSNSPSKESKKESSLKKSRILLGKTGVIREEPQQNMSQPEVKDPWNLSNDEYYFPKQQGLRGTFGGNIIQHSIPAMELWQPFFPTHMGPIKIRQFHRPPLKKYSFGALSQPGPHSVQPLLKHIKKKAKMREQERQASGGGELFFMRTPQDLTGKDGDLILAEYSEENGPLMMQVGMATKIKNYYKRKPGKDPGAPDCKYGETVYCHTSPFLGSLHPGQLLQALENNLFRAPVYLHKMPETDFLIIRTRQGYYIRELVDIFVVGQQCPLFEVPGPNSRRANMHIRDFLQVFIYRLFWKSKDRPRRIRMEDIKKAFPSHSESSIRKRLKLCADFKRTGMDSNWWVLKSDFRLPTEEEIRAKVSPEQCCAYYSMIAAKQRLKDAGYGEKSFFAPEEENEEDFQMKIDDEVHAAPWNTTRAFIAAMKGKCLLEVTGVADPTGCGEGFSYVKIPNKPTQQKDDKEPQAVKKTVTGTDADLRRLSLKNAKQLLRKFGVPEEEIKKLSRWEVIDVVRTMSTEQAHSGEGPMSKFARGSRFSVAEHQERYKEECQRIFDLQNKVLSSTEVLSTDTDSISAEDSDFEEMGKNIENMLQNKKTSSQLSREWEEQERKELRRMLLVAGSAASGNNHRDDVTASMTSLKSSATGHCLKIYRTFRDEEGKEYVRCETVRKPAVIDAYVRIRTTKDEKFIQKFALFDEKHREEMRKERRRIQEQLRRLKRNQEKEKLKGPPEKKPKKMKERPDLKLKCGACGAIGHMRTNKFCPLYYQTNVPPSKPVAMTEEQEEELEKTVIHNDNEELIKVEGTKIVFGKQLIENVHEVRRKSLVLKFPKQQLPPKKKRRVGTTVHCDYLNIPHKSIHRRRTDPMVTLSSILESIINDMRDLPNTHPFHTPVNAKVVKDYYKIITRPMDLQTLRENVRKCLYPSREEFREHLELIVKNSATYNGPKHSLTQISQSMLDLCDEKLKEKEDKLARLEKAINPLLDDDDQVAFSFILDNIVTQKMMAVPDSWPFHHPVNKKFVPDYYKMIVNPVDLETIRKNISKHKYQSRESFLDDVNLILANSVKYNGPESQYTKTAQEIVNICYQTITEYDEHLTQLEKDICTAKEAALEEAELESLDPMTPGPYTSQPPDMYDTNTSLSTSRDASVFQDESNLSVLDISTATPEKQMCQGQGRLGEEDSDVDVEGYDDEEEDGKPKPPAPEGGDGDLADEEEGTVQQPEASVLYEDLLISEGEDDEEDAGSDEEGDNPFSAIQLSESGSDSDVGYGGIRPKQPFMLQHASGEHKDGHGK

## COCC(=O)NC/C=C/c1ccc2ncnc(Nc3ccc(Oc4ccc(C)nc4)c(C)c3)c2c1 [CP-724714]
[1]
  % of control: 100%
[2]
  % of control: 100%
[3]
  % of control: 83%

## Cc1cc(CN)cc(C)c1-c1ncn(C)c1-c1cncn1C
[4]
  dTM: -1.79 K

## Cc1ccc(-c2ccc3c(ccc4sc5c(c43)NC[C@@H](C)NC5=O)n2)cn1
[5]
  % of inhibition: -9%

## C=CC(=O)Nc1cccc(C(=O)Nc2ccc(Nc3cc(-c4[nH]c(SC)nc4C)ccn3)cc2)c1
[6]; at 1 µM
  % of control: 83%
[6]; at 5 µM
  % of control: 59%
[7]; at 1 µM
  % of control: 87%
[7]; at 5 µM
  % of control: 81%

## N#Cc1cccc(-c2c[nH]c3ncnc(N4CCOCC4)c23)c1
[8]
  % of control: 54%
[9]
  % of control: 94%

## CNC(=O)Nc1ccc(-c2nc(N3CC4CCC(C3)O4)c3cnn(C4CCC5(CC4)OCCO5)c3n2)cc1
[10]
  % of control: 64%
